Laboratory results: patent US20080090863A1, “Pyridine Derivatives and Their Use as Medicaments for Treating Diseases Related to Mch Receptor” (TAISHO PHARMACEUTICAL CO., LTD., priority 2004, published 2008)
Counter-ions that a name gives are not always drawn.

target: MCH receptor (Homo sapiens, UniProt Q99705); assay: High Throughput Functional Screening: FLIPR/FDSS6000 intracellular Ca2+ assay, antagonist activity against MCH; format: cell-based; parameters: class (percent of control at 10^−7 M or IC50): scale not given here; conditions: FLIPR/FDSS, [Ca2+]i evoked by 50 nM MCH, non-endogenous constitutively active MCH receptor; read-out: IC50
Source text: Subsequently, a functional based assay was used to confirm the lead hits, referred to as FLIPR™ (the Fluorometric Imaging Plate Reader) and FDSS6000™ (Functional Drug Screening System). This assay utilized a non-endogenous, constitutively active version of the MCH receptor.
The FLIPR and FDSS assays are able to detect intracellular Ca^2+ concentration in cells, which can be utilized to assess receptor activation and determine whether a candidate compound is an, for example, antagonist, inverse agonist or agonist to a Gq-coupled receptor. The concentration of free Ca^2+ in the cytosol of any cell is extremely low, whereas its concentration in the extracellular fluid and endoplasmic reticulum (ER) is very high. Thus, there is a large gradient tending to drive Ca^2+ into the cytosol across both the plasma membrane and ER. The FLIPR™ and FDSS6000™ systems (Molecular Devices Corporation, HAMAMATSU Photonics K.K.) are designed to perform functional cell-based assays, such as the measurement of intracellular calcium for high-throughput screening. The measurement of fluorescent is associated with calcium release upon activation of the Gq-coupled receptors.
Fluorometric Imaging Plate Reader system was used to allow for rapid, kinetic measurements of intracellular fluorescence in 96 well microplates (or 384 well microplates). Simultaneous measurements of fluorescence in all wells can be made by FLIPR or FDSS6000™ every second with high sensitivity and precision. These systems are ideal for measuring cell-based functional assays such as monitoring the intracellular calcium fluxes that occur within seconds after activation of the Gq coupled receptor.
Briefly, the cells are seeded into 96 well at 5.5×10^4 cells/well with complete culture media (Dulbecco's Modified Eagle Medium with 10% fetal bovine serum, 2 mM L-glutamine, 1 mM sodium pyruvate and 0.5 mg/mL G418, pH 7.4) for the assay next day. On the day of assay, the media is removed and the cells are incubated with 100 μl of loading buffer (4 μM Fluo4-AM in complete culture media containing 2.5 mM Probenicid, 0.5 mg/ml and 0.2% bovine serum albumin) in 5% CO2 incubator at 37° C. for 1 hr. The loading buffer is removed, and the cells are washed with wash buffer (Hank's Balanced Salt Solution containing 2.5 mM Probenicid, 20 mM HEPES, 0.5 mg/mL and 0.2% bovine serum albumin, pH 7.4). One hundred fifty μl of wash buffer containing various concentrations of test compound is added to the cells, and the cells are incubated in 5% CO2 incubator at 37° C. for 30 min. Fifty μl of wash buffer containing various concentration of MCH are added to each well, and transient changes in [Ca^2+]i evoked by MCH are monitored using the FLIPR™ or FDSS in 96 well plates at Ex. 488 nm and Em. 530 nm for 290 second. When antagonist activity of compound is tested, 50 nM of MCH is used.
Use of FLIPR™ and FDSS6000™ can be accomplished by following manufacturer's instruction (Molecular Device Corporation and HAMAMATSU Photonics K.K.).

Row | IC50 [nM] | SMILES
1 | 1.9 | Cc1cnc(N[C@H]2CC[C@@H](NC(=O)c3cc(F)c(F)c(F)c3)CC2)cc1N(C)C [Example 5, N-(cis-4-{[4-(Dimethylamino)-5-methylpyridin-2-yl]amino}cyclohexyl)-3,4,5-trifluorobenzamide hydrochloride]

same assay, conditions: FLIPR/FDSS, [Ca2+]i evoked by 50 nM MCH; class by percent of control at 10^−7 M or IC50

Row | SMILES | class (percent of control at 10^−7 M or IC50)
2 | Cc1cc(N(C)C)cc(N[C@H]2CC[C@@H](NC(=O)Cc3cccc4ccccc34)CC2)n1 [Example 168, N-(cis-4-{[4-(dimethylamino)-6-methylpyridin-2-yl]amino}cyclohexyl)-2-(1-naphthyl)acetamide] | 2
3 | Cc1cnc(N[C@H]2CC[C@@H](NC(=O)c3cc(F)c(F)c(F)c3)CC2)cc1N.Cl [Example 18, N-{cis-4-[(4-Amino-5-methylpyridin-2-yl)amino]cyclohexyl}-3,4,5-trifluorobenzamide hydrochloride] | 2
4 | Cc1cc(N(C)C)cc(N[C@H]2CC[C@@H](NC(=O)c3cccnc3Oc3ccccc3)CC2)n1 [Example 203, N-(cis-4-{[4-(dimethylamino)-6-methylpyridin-2-yl]amino}cyclohexyl)-2-phenoxynicotinamide] | 2
5 | Cc1cc(N(C)C)cc(N[C@H]2CC[C@@H](NC(=O)c3cccc(C(F)(F)F)c3)CC2)n1 [Example 177, N-(cis-4-{[4-(dimethylamino)-6-methylpyridin-2-yl]amino}cyclohexyl)-3-(trifluoromethyl)benzamide] | 2
6 | Cc1ccc(N[C@H]2CC[C@@H](NC(=O)c3ccc(F)c(Cl)c3)CC2)nc1.Cl [Example 2, 3-Chloro-4-fluoro-N-{cis-4-[(5-methylpyridin-2-yl)amino]cyclohexyl}benzamide hydrochloride] | 2
7 | Cc1cnc(N[C@H]2CC[C@@H](NC(=O)Oc3ccc(Br)cc3)CC2)cc1N(C)C [Example 27, 4-Bromophenyl (cis-4-{[4-(dimethylamino)-5-methylpyridin-2-yl]amino}cyclohexyl)carbamate] | 2
8 | Cc1cc(N(C)C)cc(N[C@H]2CC[C@@H](NCCOc3ccc(Cl)cc3)CC2)n1 [Example 209, N-(cis-4-{[2-(4-chlorophenoxy)ethyl]amino}cyclohexyl)-N,N-6-trimethylpyridine-2,4-diamine] | 2

More lines, now with the values ahead:

Row | class (percent of control at 10^−7 M or IC50) | SMILES
9 | 2 | Cc1cnc(N[C@H]2CC[C@@H](NC(=O)c3ccc(F)c(Cl)c3)CC2)cc1N1CCCC1.Cl [Example 20, 3-Chloro-4-fluoro-N-{cis-4-[(5-methyl-4-pyrrolidin-1-ylpyridin-2-yl)amino]cyclohexyl}-benzamide hydrochloride]
10 | 2 | Cc1ccnc(N[C@H]2CC[C@@H](NC(=O)c3ccc(F)c(Cl)c3)CC2)c1.Cl [Example 35, 3-Chloro-4-fluoro-N-{cis-4-[(4-methylpyridin-2-yl)amino]cyclohexyl}benzamide hydrochloride]

same assay, conditions: FLIPR/FDSS, [Ca2+]i evoked by 50 nM MCH; class by percent of control at 10^−7 M or IC50; read-out: class (percent of control at 10^−7 M or IC50)

Row | SMILES | IC50 [nM]
11 | Cc1cnc(N[C@H]2CC[C@@H](NC(=O)c3ccc(Cl)c(Cl)c3)CC2)cc1N(C)C [Example 9, 3,4-Dichloro-N-(cis-4-{[4-(Dimethylamino)-5-methylpyridin-2-yl]amino}cyclohexyl)benzamide hydrochloride] | < 50
12 | CN(C)c1ccnc(N[C@H]2CC[C@@H](NC(=O)c3ccc(F)c(Cl)c3)CC2)c1 [Example 36, 3-Chloro-N-(cis-4-{[4-(dimethylamino)pyridin-2-yl]amino}cyclohexyl)-4-fluorobenzamide hydrochloride] | < 50
13 | Cc1cnc(N[C@H]2CC[C@@H](NC(=O)c3cc(F)c(F)c(F)c3)CC2)cc1N(C)C [Example 5, N-(cis-4-{[4-(Dimethylamino)-5-methylpyridin-2-yl]amino}cyclohexyl)-3,4,5-trifluorobenzamide hydrochloride] | < 50
14 | COc1ccc(Oc2ccc([N+](=O)[O-])cc2C(=O)N[C@H]2CC[C@@H](Nc3cc(N(C)C)cc(C)n3)CC2)cc1 [Example 192, N-(cis-4-{[4-(dimethylamino)-6-methylpyridin-2-yl]amino}cyclohexyl)-2-(4-methoxyphenoxy)-5-nitrobenzamide] | < 50
15 | CN(C)c1ccnc(N[C@H]2CC[C@@H](NC(=O)c3cc(F)c(F)c(F)c3)CC2)c1 [Example 37, N-(cis-4-{[4-(Dimethylamino)pyridin-2-yl]amino}cyclohexyl)-3,4,5-trifluorobenzamide hydrochloride] | < 50
16 | Cc1cc(N(C)C)cc(N[C@H]2CC[C@@H](NC(=O)c3ccc4nonc4c3)CC2)n1 [Example 146, N-(cis-4-{[4-(dimethylamino)-6-methylpyridin-2-yl]amino}cyclohexyl)-2,1,3-benzoxadiazole-5-carboxamide] | < 50
17 | Cc1cnc(N[C@H]2CC[C@@H](NC(=O)c3ccc(F)c(F)c3)CC2)cc1N(C)C [Example 8, N-(cis-4-{[4-(Dimethylamino)-5-methylpyridin-2-yl]amino}cyclohexyl)-3,4-difluorobenzamide hydrochloride] | < 50
18 | Cc1cc(N(C)C)cc(N[C@H]2CC[C@@H](NC(=O)c3ccc(F)c(F)c3)CC2)n1 [Example 171, N-(cis-4-{[4-(dimethylamino)-6-methylpyridin-2-yl]amino}cyclohexyl)-3,4-difluorobenzamide] | < 50
19 | Cc1cnc(N[C@H]2CC[C@@H](NC(=O)c3cccc(C(F)(F)F)c3)CC2)cc1N(C)C [Example 14, N-(cis-4-{[4-(Dimethylamino)-5-methylpyridin-2-yl]amino}cyclohexyl)-3-(trifluoromethyl)-benzamide hydrochloride] | < 50
20 | Cc1cnc(N[C@H]2CC[C@@H](NC(=O)c3cncc(Br)c3)CC2)cc1N(C)C [Example 11, 5-Bromo-N-(cis-4-{[4-(dimethylamino)-5-methylpyridin-2-yl]amino}cyclohexyl)nicotinamide dihydrochloride] | < 50

Now from value to compound:

Row | IC50 [nM] | SMILES
21 | < 50 | Cc1cc(C)nc(N[C@H]2CC[C@@H](NC(=O)c3ccc(F)c(Cl)c3)CC2)c1 [Example 52, 3-Chloro-N-{cis-4-[(4,6-dimethylpyridin-2-yl)amino]cyclohexyl}-4-fluorobenzamide hydrochloride]
22 | < 50 | Cc1cc(N[C@H]2CC[C@@H](NC(=O)c3ccc(F)c(Cl)c3)CC2)nc2c1CCCC2 [Example 34, 3-Chloro-4-fluoro-N-{cis-4-[(4-methyl-5,6,7,8-tetrahydroquinolin-2-yl)amino]cyclohexyl}benzamide hydrochloride]
23 | < 50 | Cc1cc(N(C)C)cc(N[C@H]2CC[C@@H](NC(=O)c3ccc(F)c(Cl)c3)CC2)n1 [Example 28, 3-Chloro-N-(cis-4-{[4-(dimethylamino)-6-methylpyridin-2-yl]amino}cyclohexyl)-4-fluorobenzamide hydrochloride]
24 | < 50 | Cc1cc(N[C@H]2CC[C@@H](NC(=O)c3ccc(F)c(Cl)c3)CC2)nc2c1CCC2 [Example 33, 3-Chloro-4-fluoro-N-{cis-4-[(4-methyl-6,7-dihydro-5H-cyclopenta[b]pyridin-2-yl)amino]cyclohexyl}benzamide hydrochloride]
25 | < 50 | Cc1cnc(N[C@H]2CC[C@@H](NC(=O)c3ccc(F)c(Cl)c3)CC2)cc1C [Example 51, 3-Chloro-N-{cis-4-[(4,5-dimethylpyridin-2-yl)amino]cyclohexyl}-4-fluorobenzamide hydrochloride]
26 | < 50 | Cc1cc(N[C@H]2CC[C@@H](NC(=O)c3ccc(F)c(Cl)c3)CC2)nc(C)c1C [Example 50, 3-Chloro-4-fluoro-N-{cis-4-[(4,5,6-trimethylpyridin-2-yl)amino]cyclohexyl}benzamide hydrochloride]
